According to patent US9751869B2, “LXR modulators” (BRISTOL-MYERS SQUIBB COMPANY, priority 2013, dated 2017):

Biological target: T1, LXRβ (Homo sapiens, UniProt P55055)
T1 construct: Co-transfection expression plasmids, comprising full-length LXRα (pCMX-h LXRα or LXRβ (pCMX-hLXRβ)); expressed in transfected cells; host or cells: CV-1 African green monkey kidney cells, transient transfection with pCMX-hLXRβ
T1 sequence (P55055 1-460): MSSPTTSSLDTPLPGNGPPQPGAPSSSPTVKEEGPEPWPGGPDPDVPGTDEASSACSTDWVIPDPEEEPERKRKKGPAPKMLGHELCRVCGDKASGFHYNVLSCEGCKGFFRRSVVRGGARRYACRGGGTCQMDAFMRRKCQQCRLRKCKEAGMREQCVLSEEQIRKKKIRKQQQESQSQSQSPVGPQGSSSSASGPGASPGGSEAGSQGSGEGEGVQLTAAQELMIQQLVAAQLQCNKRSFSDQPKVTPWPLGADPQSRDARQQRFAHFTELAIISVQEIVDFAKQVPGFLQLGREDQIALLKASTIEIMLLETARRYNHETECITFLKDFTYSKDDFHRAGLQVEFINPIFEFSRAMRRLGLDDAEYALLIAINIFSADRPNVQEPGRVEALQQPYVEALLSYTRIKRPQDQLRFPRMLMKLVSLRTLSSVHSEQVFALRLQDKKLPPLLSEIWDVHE
T1 sequence (P19793 1-462 partner): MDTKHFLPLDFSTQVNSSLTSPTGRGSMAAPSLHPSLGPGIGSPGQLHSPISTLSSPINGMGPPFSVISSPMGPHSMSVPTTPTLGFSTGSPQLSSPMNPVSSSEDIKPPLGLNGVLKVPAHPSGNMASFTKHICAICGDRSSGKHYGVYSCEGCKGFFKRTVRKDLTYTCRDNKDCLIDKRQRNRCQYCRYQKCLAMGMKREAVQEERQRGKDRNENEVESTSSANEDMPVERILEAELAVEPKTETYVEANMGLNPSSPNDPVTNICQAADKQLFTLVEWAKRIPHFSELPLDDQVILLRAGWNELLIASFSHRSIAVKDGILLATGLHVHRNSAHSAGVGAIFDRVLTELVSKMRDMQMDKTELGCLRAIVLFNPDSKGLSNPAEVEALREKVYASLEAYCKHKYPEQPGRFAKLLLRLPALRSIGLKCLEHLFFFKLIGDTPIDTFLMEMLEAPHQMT
Test: LXR/LXRE co-transfection assay (luciferase reporter) in CV-1 cells, LXRβ
Assay type: cell-based
Details: for EC50: CV-1 cells transfected with pCMX-hLXRβ and LXREx1-Tk-Luciferase, 20 hours incubation, read-out: LXRbeta agonism EC50; for Emax: CV-1 cells, relative to maximum response of high control N-(3-((4-fluorophenyl)-(naphthalene-2-sulfonyl)amino)propyl)-2,2-dimethylpropionamide, read-out: LXRbeta % EFFICACY
Procedure, shortened: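 Luciferase read-out after 20 h compound treatment at 37 °C of CV-1 cells carrying transfected hLXRβ plus one-copy LXRE reporter, endogenous RXR partnering. Sigmoidal fit of 10-point half-log curves (4 wells each) gave EC50; % efficacy versus maximal response of the propionamide reference agonist.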

Row | SMILES | EC50 [nM] | Emax [%]
1 | CNS(=O)(=O)c1cccc(-c2ccc(-n3cc(Cl)c(C(F)(F)F)n3)c(-c3oc(C)nc3-c3cnc(OC)nc3)c2)c1 [Example 445, 4′-(4-chloro-3-(trifluoromethyl)-1H-pyrazol-1-yl)-3′-(4-(2-methoxypyrimidin-5-yl)-2-methyloxazol-5-yl)-N-methyl-[1,1′-biphenyl]-3-sulfonamide] | 170 | 63
2 | Cc1nc(-c2ccc(OC(F)(F)F)cc2)c(-c2cc(-c3cc(F)c(CO)c(S(C)(=O)=O)c3)ccc2-n2cc(C#N)c(C3CC3)n2)o1 [Example 446, 3-cyclopropyl-1-(3′-fluoro-4′-(hydroxymethyl)-3-(2-methyl-4-(4-(trifluoromethoxy)phenyl)oxazol-5-yl)-5′-(methylsulfonyl)-[1,1′-biphenyl]-4-yl)-1H-pyrazole-4-carbonitrile] | 30 | 28
3 | Cc1nc(-c2ccc(OC(F)(F)F)cc2)c(-c2cc(-c3cccc(S(C)(=O)=O)c3)ccc2-n2cc(C#N)c(C3CC3)n2)o1 [Example 447, 3-cyclopropyl-1-(3-(2-methyl-4-(4-(trifluoromethoxy)phenyl)oxazol-5-yl)-3′-(methylsulfonyl)-[1,1′-biphenyl]-4-yl)-1H-pyrazole-4-carbonitrile] | 116 | 28
4 | Cc1nc(-c2ccc(OC(F)(F)F)cc2)c(-c2cc(-c3cc(F)c(CO)c(S(C)(=O)=O)c3)ccc2-n2cc(C(N)=O)c(C3CC3)n2)o1 [Example 448, 3-cyclopropyl-1-(3′-fluoro-4′-(hydroxymethyl)-3-(2-methyl-4-(4-(trifluoromethoxy)phenyl)oxazol-5-yl)-5′-(methylsulfonyl)-[1,1′-biphenyl]-4-yl)-1H-pyrazole-4-carboxamide] | 279 | 30
